Here are results for 3 compounds from publication doi:10.1101/2022.02.23.481635v1 (biorxiv, 2022).

Type in all cases: binding
For assay [1], the target named is T1, 14-3-3σ/TAZ complex (Homo sapiens, UniProt P31947+Q9GZV5). Briefly: STD NMR dose response.
Assay [2] addresses T1, 14-3-3σ/TAZ complex. Briefly: STD NMR. The following applies: 300 μM fragment, 10 μM 14-3-3σ, 100 μM TAZ peptide, relative to apo-14-3-3σ.
The target of the next assay is 14-3-3/ABL1 complex (Homo sapiens, UniProt P00519+P31947). The assay is described as follows: STD NMR dose response.
14-3-3/ABL1 complex, sequence (P31947 whole entry, other chains not shown): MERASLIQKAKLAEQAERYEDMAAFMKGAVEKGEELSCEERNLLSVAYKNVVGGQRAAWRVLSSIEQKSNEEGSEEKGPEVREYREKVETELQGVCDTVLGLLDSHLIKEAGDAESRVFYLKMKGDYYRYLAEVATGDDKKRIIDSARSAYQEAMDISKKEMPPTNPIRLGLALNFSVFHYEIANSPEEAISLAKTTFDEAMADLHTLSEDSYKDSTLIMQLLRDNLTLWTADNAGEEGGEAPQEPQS

T1 sequence (P31947 whole entry, other chains not shown, the tested form may be a part): as the sequence (P31947 whole entry, other chains not shown) above

As usually defined, the EC50 is the midpoint of the concentration-response curve. Lower therefore signals greater potency. Regarding `N=C(N)c1cc2ccccc2o1` [F9], the EC50 on 14-3-3σ/TAZ complex [1] worked out at 2300 ± 300 µM.
For `CCN1CCN(c2cc(C(=N)N)ccn2)CC1` [F4], the “fold STD signal (I+peptide / I-peptide)” value on 14-3-3σ/TAZ complex [2] is 1.9 fold.
Regarding `COC(=O)c1cccc(C(=N)N)c1` [F5], the EC50 stood at 8700 ± 400 µM on 14-3-3/ABL1 complex and 1800 ± 400 µM on 14-3-3σ/TAZ complex [1].
